Assay: Solubility tests in organic solvents
Assay type: physicochemical
Settings: 20° C.; for Solubility S in chlorobenzene / Solubility S in toluene: 1 ml solvent, magnetic stirring
Experimental: The solubility tests were carried out at 20° C. by adding 1 ml of solvent to the suitable amount of compound powder in a sampling vial and under magnetic stirring.

Row | Compound | Solubility S in chlorobenzene (molar) [mM] | Solubility S in chlorobenzene [mg/mL] | Solubility S in toluene (molar) [mM] | Solubility S in toluene [mg/mL]
1 | CC(C)[Si](c1ccc2c(c1)c1cc([Si](C(C)C)(C(C)C)C(C)C)ccc1n2-c1ccc(C2(c3ccc(-n4c5ccc([Si](C(C)C)(C(C)C)C(C)C)cc5c5cc([Si](C(C)C)(C(C)C)C(C)C)ccc54)cc3)c3ccccc3-c3ccccc32)cc1)(C(C)C)C(C)C [Compound IV, 9,9-Bis-(4-phenyl-3,6,3″,6″-tetrakis-triisopropylsilanyl-9′H-carbazole)-9H-fluorene] | > 42 | > 54 | > 31 | > 39
2 | CC(C)[Si](c1ccc2c(c1)c1ccccc1n2-c1ccc(C2(c3ccc(-n4c5ccccc5c5cc([Si](C(C)C)(C(C)C)C(C)C)ccc54)cc3)c3ccccc3-c3ccccc32)cc1)(C(C)C)C(C)C [Compound IX, 9,9-Bis-[4-(3-Triisopropylsilylcarbazol)-phenyl]-fluorene] | > 59 | > 57 | > 49 | > 47
3 | COc1ccc(-n2c3ccc(-n4c5ccc([Si](C(C)C)(C(C)C)C(C)C)cc5c5cc([Si](C(C)C)(C(C)C)C(C)C)ccc54)cc3c3cc(-n4c5ccc([Si](C(C)C)(C(C)C)C(C)C)cc5c5cc([Si](C(C)C)(C(C)C)C(C)C)ccc54)ccc32)cc1 [Compound VI, 9′-(4-Methoxy-phenyl)-3,6,3″,6″-tetrakis-triisopropylsilanyl-9′-[9,3′;6′,9″]tercarbazole] | > 45 | > 55 | – | –
4 | COc1ccc(-n2c3ccc(-n4c5ccccc5c5cc([Si](C(C)C)(C(C)C)C(C)C)ccc54)cc3c3cc(-n4c5ccccc5c5cc([Si](C(C)C)(C(C)C)C(C)C)ccc54)ccc32)cc1 [Compound VII, 9-N-(4-Methoxy-phenyl)-3,6-Bis-[(3-Triisopropylsilylcarbazolyl)]carbazole] | > 62 | > 56 | – | –
5 | CC(C)[Si](c1ccc2c(c1)c1ccccc1n2-c1ccc2c(c1)c1cc(-n3c4ccccc4c4cc([Si](C(C)C)(C(C)C)C(C)C)ccc43)ccc1n2-c1ccc(F)cc1)(C(C)C)C(C)C [Compound VIII, 9-N-(4-Fluoro-phenyl)-3,6-Bis-[(3-Triisopropylsilylcarbazolyl)]carbazole] | > 57 | > 51 | – | –

Source: patent US8586973B2, “Host material for light-emitting diodes” (Solvay SA, priority 2008, dated 2013)
